This passage reports IC50 results from ChEMBL document CHEMBL1152784, “Discovery of 4-substituted methoxybenzoyl-aryl-thiazole as novel anticancer agents: synthesis, biological evaluation, and structure-activity relationships” (J Med Chem, 2009).

The structures appear in SMILES notation.

One test relates to A-375. In words: Cytotoxicity against human A375 cells after 48 hrs by SRB assay. The note with it: A-375, 48 h. It is filed as functional, cell-based.
The test system of a further test is LNCaP. In words: Cytotoxicity against human LNCAP cells after 96 hrs by SRB assay. (In SRB staining, fixed cells bind dye roughly in proportion to their protein.)
The test system of a further test is PC-3. In words: Cytotoxicity against human PC3 cells after 96 hrs by SRB assay. The conditions noted are these: PC-3, 96 h.
Test [1] is described as follows: Cytotoxicity against mouse B16-F1 cells after 48 hrs by SRB assay. Type of test: functional, cell-based. The conditions noted are these: B16-F1, 48 h.
The next test deals with PPC-1. The test can be described thus: Cytotoxicity against human PPC1 cells after 96 hrs by SRB assay.
In another test the test system is DU-145. In words: Cytotoxicity against human DU145 cells after 96 hrs by SRB assay. The note with it: DU-145, 96 h.

The term IC50 denotes the concentration at which inhibition is half-maximal. A higher IC50 goes with weaker potency.

Turning to `COc1cc(C(=O)c2csc(-c3ccc(F)cc3)n2)cc(OC)c1OC`, the IC50 with A-375 came to 33 nM; with LNCaP (Homo sapiens, LNCaP, 96 h), 6 nM; with PC-3, 13 nM; in test [1] it was 43 nM.
Regarding `COc1cc(C(=O)c2csc(-c3ccncc3)n2)cc(OC)c1OC`, the half-inhibitory concentration (IC50) with PPC-1 (ppc-1) was found to be 18000 nM; with LNCaP (lncap), 16600 nM.
Consider `COc1cc(C(=O)c2csc(-c3cccc(F)c3)n2)cc(OC)c1OC`, for which the IC50 in the test with PPC-1 (Homo sapiens, PPC-1, 96 h) turned out to be 21 nM; in the test with A-375 it was 304 nM; in the test with LNCaP (Homo sapiens, LNCaP, 96 h), 11 nM; in the test on PC-3, 24 nM; in test [1], 287 nM; in the test on DU-145, 35 nM.
For the compound `COc1cc(C(=O)c2csc(-c3ccccc3F)n2)cc(OC)c1OC`, the IC50 in the test with PPC-1 (Homo sapiens, PPC-1, 96 h) worked out at 52 nM; in the test on A-375 it was 30 nM; in the test with LNCaP (Homo sapiens, LNCaP, 96 h) it was 53 nM; in the test on PC-3, 82 nM; in test [1], 27 nM; with DU-145 it was 114 nM.
On to `COc1cc(C(=O)c2csc(-c3ccc(N)cc3)n2)cc(OC)c1OC`, for which the IC50 came to 15 nM with PPC-1 (Homo sapiens, PPC-1, 96 h); 11 nM in the test with A-375; 13 nM in the test on LNCaP (Homo sapiens, LNCaP, 96 h); 12 nM in the test with PC-3; 29 nM in test [1]; 20 nM in the test with DU-145.
With `COc1cc(C(=O)c2csc(-c3ccc(C)cc3)n2)cc(OC)c1OC`, the half-inhibitory concentration (IC50) in the test on PPC-1 (Homo sapiens, PPC-1, 96 h) came out at 6 nM; with A-375, 11 nM; in the test with PC-3 it was 5 nM; in test [1], 21 nM; in the test with DU-145 it was 7 nM.
With `COc1cc(C(=O)c2csc(-c3cccs3)n2)cc(OC)c1OC`, the IC50 in the test on PPC-1 (Homo sapiens, PPC-1, 96 h) was found to be 13 nM; in the test with A-375 it was 20 nM; in the test with LNCaP (Homo sapiens, LNCaP, 96 h), 9 nM; in test [1], 38 nM; in the test with DU-145, 22 nM.
For `COc1cc(C(=O)c2csc(-c3ccc([N+](=O)[O-])cc3)n2)cc(OC)c1OC`, the IC50 with PPC-1 (Homo sapiens, PPC-1, 96 h) came to 34 nM; in the test with LNCaP (Homo sapiens, LNCaP, 96 h), 39 nM; in the test with PC-3 it was 56 nM; with DU-145 it was 95 nM.
With `O=C(c1ccccc1)c1csc(-c2ccccc2)n1`, the half-maximal inhibitory concentration (IC50) in the test with PPC-1 (Homo sapiens, PPC-1, 96 h) is above 20000 nM; in the test with A-375 it was above 100000 nM; in the test with LNCaP (Homo sapiens, LNCaP, 96 h), above 20000 nM; with PC-3, above 20000 nM; in test [1], above 100000 nM; in the test with DU-145 it was above 20000 nM.
Turning to `COc1cc(C(=O)c2csc(-c3ncccn3)n2)cc(OC)c1OC`, the IC50 is 1190 nM with PPC-1 (Homo sapiens, PPC-1, 96 h); 4100 nM with A-375; 2370 nM in the test with LNCaP (Homo sapiens, LNCaP, 96 h); 2660 nM in the test on PC-3; 2810 nM in the test with DU-145.
For `COC(=O)c1ccc(-c2nc(C(=O)c3cc(OC)c(OC)c(OC)c3)cs2)cc1`, the concentration for half-maximal inhibition (IC50) is above 20000 nM in the test with PPC-1 (Homo sapiens, PPC-1, 96 h); above 100000 nM with A-375; above 20000 nM in the test with LNCaP (Homo sapiens, LNCaP, 96 h); above 20000 nM in the test on PC-3; above 100000 nM in test [1]; above 20000 nM in the test on DU-145.
In the case of `CC(=O)Nc1ccc(C2N[C@H](C(=O)Nc3ccc4c(c3)Cc3ccccc3-4)CS2)cc1` (mixture of isomers), the IC50 is 1600 nM with PPC-1 (Homo sapiens, PPC-1, 96 h); 3500 nM in the test with LNCaP (Homo sapiens, LNCaP, 96 h); 2100 nM in the test with PC-3; 1900 nM with DU-145.
Regarding `COc1cc(NC(=O)[C@@H]2CSC(c3cc(OC)c(OC)c(OC)c3)N2)cc(OC)c1OC` (mixture of isomers), the IC50 in the test on PPC-1 (Homo sapiens, PPC-1, 96 h) is above 20000 nM; in the test on A-375, above 100000 nM; in the test with LNCaP (Homo sapiens, LNCaP, 96 h), above 20000 nM; in the test with PC-3, above 20000 nM; in test [1], above 100000 nM; with DU-145 it was above 20000 nM.
As for `COc1cc(NC(=O)[C@@H]2CSC(c3ccccc3)N2)cc(OC)c1OC` (mixture of isomers), the IC50 was above 20000 nM in the test on PPC-1 (Homo sapiens, PPC-1, 96 h); above 100000 nM in the test with A-375; above 20000 nM in the test with LNCaP (Homo sapiens, LNCaP, 96 h); above 20000 nM in the test on PC-3; above 100000 nM in test [1]; above 20000 nM in the test with DU-145.
As to `CCCCCCCCCCCCCCCCC(=O)c1csc(-c2ccccc2)n1`, the IC50 is above 20000 nM in the test on PPC-1 (Homo sapiens, PPC-1, 96 h); 16000 nM in the test with A-375; above 20000 nM with LNCaP (Homo sapiens, LNCaP, 96 h); above 20000 nM in the test with PC-3; 18600 nM in test [1]; above 20000 nM in the test on DU-145.
In the case of `COc1cc(C(=O)c2csc(-c3ccc(C#N)cc3)n2)cc(OC)c1OC`, the IC50 was determined as 19 nM in the test with PPC-1 (Homo sapiens, PPC-1, 96 h); 59 nM in the test on A-375; 15 nM in the test on LNCaP (Homo sapiens, LNCaP, 96 h); 30 nM with PC-3; 52 nM in the test on DU-145.
On to `COc1cc(OC)cc(C(=O)c2csc(-c3ccccc3)n2)c1`, for which the IC50 in the test with PPC-1 (Homo sapiens, PPC-1, 96 h) amounted to 242 nM; with A-375, 170 nM; in the test with LNCaP (Homo sapiens, LNCaP, 96 h) it was 323 nM; in the test on PC-3, 301 nM; in test [1], 350 nM; in the test on DU-145, 424 nM.
`COc1cc(C(=O)c2cscn2)cc(OC)c1OC`: the IC50 is above 20000 nM with PPC-1 (Homo sapiens, PPC-1, 96 h); above 100000 nM in the test on A-375; above 20000 nM in the test on LNCaP (Homo sapiens, LNCaP, 96 h); above 20000 nM in the test on PC-3; above 100000 nM in test [1]; above 20000 nM in the test with DU-145.
Turning to `COc1cc(NC(=O)c2csc(-c3ccccc3)n2)cc(OC)c1OC`, the IC50 in the test with PPC-1 (Homo sapiens, PPC-1, 96 h) was above 20000 nM; in the test on A-375, above 100000 nM; in the test with LNCaP (Homo sapiens, LNCaP, 96 h), above 20000 nM; in the test on PC-3, above 20000 nM; in test [1], above 100000 nM; in the test on DU-145, above 20000 nM.
As to `O=C(c1csc(-c2ccccc2)n1)c1ccccc1F`, the IC50 is above 20000 nM in the test with PPC-1 (Homo sapiens, PPC-1, 96 h); above 100000 nM in the test on A-375; above 20000 nM with LNCaP (Homo sapiens, LNCaP, 96 h); above 20000 nM in the test on PC-3; above 100000 nM in test [1]; above 20000 nM in the test on DU-145.
Turning to `O=C(c1ccccn1)c1csc(-c2ccccc2)n1`, the IC50 is above 20000 nM in the test with PPC-1 (Homo sapiens, PPC-1, 96 h); above 100000 nM in the test with A-375; above 20000 nM with LNCaP (Homo sapiens, LNCaP, 96 h); above 20000 nM with PC-3; above 100000 nM in test [1]; above 20000 nM with DU-145.
Turning to `COc1cc(NC(=O)[C@H]2CSC(c3ccccc3)=N2)cc(OC)c1OC`, the IC50 in the test on PPC-1 (Homo sapiens, PPC-1, 96 h) is 3400 nM; in the test with LNCaP (Homo sapiens, LNCaP, 96 h), 16800 nM; with PC-3 it was 13200 nM; in test [1], 30400 nM; in the test with DU-145, above 20000 nM.
`COc1ccc(C(=O)c2csc(-c3ccccc3)n2)cc1OC`: the half-maximal inhibitory concentration (IC50) in the test with PPC-1 (Homo sapiens, PPC-1, 96 h) was above 20000 nM; in the test with A-375, above 100000 nM; in the test on LNCaP (Homo sapiens, LNCaP, 96 h), above 20000 nM; with PC-3, above 20000 nM; in test [1], above 100000 nM; in the test on DU-145, above 20000 nM.
As for `COc1cc(C(=O)c2csc(-c3ccc(Br)cc3)n2)cc(OC)c1OC`, the IC50 is 21 nM with PPC-1 (Homo sapiens, PPC-1, 96 h); 13 nM in the test with A-375; 44 nM with LNCaP (Homo sapiens, LNCaP, 96 h); 18 nM in the test with PC-3; 32 nM in test [1]; 21 nM in the test on DU-145.
For `CCc1ccc(-c2nc(C(=O)c3cc(OC)c(OC)c(OC)c3)cs2)cc1`, the half-maximal inhibitory concentration (IC50) was determined as 22 nM with PPC-1 (Homo sapiens, PPC-1, 96 h); 60 nM with LNCaP (Homo sapiens, LNCaP, 96 h); 27 nM in the test with PC-3; 70 nM in test [1]; 31 nM in the test on DU-145.
On to `CCCCCCCCCCCCCCCCNC(=O)[C@@H]1CSC(c2ccc(NC(C)=O)cc2)N1` (mixture of isomers), for which the IC50 in the test on PPC-1 (Homo sapiens, PPC-1, 96 h) came out at 400 nM; with A-375 it was 2100 nM; with LNCaP (Homo sapiens, LNCaP, 96 h), 1000 nM; in test [1], 2200 nM; in the test on DU-145 it was 1700 nM.
`COc1cc(C(=O)c2csc(-c3ccc(C(F)(F)F)cc3)n2)cc(OC)c1OC`: the IC50 stood at 76 nM in the test on PPC-1 (Homo sapiens, PPC-1, 96 h); 23 nM in the test with A-375; 94 nM in the test on LNCaP (Homo sapiens, LNCaP, 96 h); 58 nM in the test with PC-3; 50 nM with DU-145.
